# Patent publication US9937151B2, “Carbapenem antibacterials with gram-negative activity” (priority 2010, dated 2018)
# Tested on: G(−) bacterial strains
# Experiment: Dilution antimicrobial susceptibility tests (MIC, NCCLS agar dilution / broth dilution)
# Type: cell-based, Gram-negative organisms
# Details: unit assumed
# How it was run: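 Agar dilution on Mueller-Hinton agar at 10^4 CFU/spot and broth dilution at 5×10^5 CFU/well, per NCCLS M7-A5. Streptococci tested on Mueller-Hinton agar with 5% sheep blood. MIC taken as minimum inhibitory concentration; ATCC control strains run alongside.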
# [1] = strain #1 Acinetobacter calcoaceticus
# [2] = strain #2 Acinetobacter baumannii, Cf-R, Ci-R
# [3] = strain #3 Acinetobacter baumannii, Cf-R, Ci-R, Mp-I
# [4] = strain #4 Acinetobacter baumannii, Cf-R, Imp-I, CBPase
# [5] = strain #7 Enterobacter aerogenes
# [6] = strain #8 Enterobacter cloacae, Cf-R, B+
# [7] = strain #9 Enterobacter cloacae, Cf-R
# [8] = strain #10 Escherichia coli, Ci-R
# [9] = strain #11 Escherichia coli, Ci-R, AmpC
# [10] = strain #15 Klebsiella pneumoniae
# [11] = strain #16 Moraxella catarrhalis
# [12] = strain #21 Providencia rettgeri
# [13] = strain #22 Salmonella typhimurium
# [14] = strain #25 Shigella dysenteriae
# [15] = strain #28 Stenotrophomonas maltophilia
SMILES,MIC [1] [µg/mL],MIC [2] [µg/mL],MIC [3] [µg/mL],MIC [4] [µg/mL],MIC (strain #5 Citrobacter diversus) [µg/mL],MIC (strain #6 Citrobacter freundii) [µg/mL],MIC [5] [µg/mL],MIC [6] [µg/mL],MIC [7] [µg/mL],MIC [8] [µg/mL],MIC [9] [µg/mL],MIC (strain #12 Escherichia coli) [µg/mL],MIC (strain #13 Escherichia coli) [µg/mL],MIC (strain #14 Klebsiella oxytoca) [µg/mL],MIC [10] [µg/mL],MIC [11] [µg/mL],MIC (strain #17 Morganella Morganii) [µg/mL],MIC (strain #18 Morganella Morganii) [µg/mL],MIC (strain #19 Proteus vulgaris) [µg/mL],MIC (strain #20 Proteus mirabilis) [µg/mL],other results
C[C@@H](O)C1C(=O)N2C(C(=O)O)=C(CN3CC[C@H](C(=O)NC(=N)N)C3)[C@H](C)C12 (some centres unmarked) [Compound 143],8,32,32,> 32,0.5,1,4,0.5,1,0.5,0.5,0.5,0.5,1,2,0.063,16,8,8,1,MIC [12]: 2 µg/mL; MIC [13]: 0.5 µg/mL; MIC (strain #23 Serratia marcescens): 1 µg/mL; MIC (strain #24 Serratia marcescens): 2 µg/mL; MIC [14]: 1 µg/mL; MIC (strain #26 Shigella sonnei): 1 µg/mL; MIC (strain #27 Shigella flexneri): 0.5 µg/mL; MIC [15]: 4 µg/mL
C[C@@H](O)C1C(=O)N2C(C(=O)O)=C(CN3CC[C@H](O)C3)[C@H](C)C12 (some centres unmarked) [Compound 146],1,1,2,4,0.5,0.5,2,0.25,1,0.25,0.25,0.5,0.5,1,1,0.016,8,8,4,0.5,MIC [12]: 2 µg/mL; MIC [13]: 0.5 µg/mL; MIC (strain #23 Serratia marcescens): 2 µg/mL; MIC (strain #24 Serratia marcescens): 2 µg/mL; MIC [14]: 0.5 µg/mL; MIC (strain #26 Shigella sonnei): 0.5 µg/mL; MIC (strain #27 Shigella flexneri): 0.25 µg/mL; MIC [15]: 0.5 µg/mL
C[C@@H](O)C1C(=O)N2C(C(=O)O)=C(CN3CC[C@@H](N)C3)[C@H](C)C12 (some centres unmarked) [Compound 151],0.25,0.5,2,1,0.25,0.5,2,0.25,0.5,0.25,0.25,0.25,0.5,0.5,0.5,≤ 0.008,4,4,1,0.5,MIC [12]: 2 µg/mL; MIC [13]: 0.5 µg/mL; MIC (strain #23 Serratia marcescens): 1 µg/mL; MIC (strain #24 Serratia marcescens): 1 µg/mL; MIC [14]: 0.5 µg/mL; MIC (strain #26 Shigella sonnei): 0.5 µg/mL; MIC (strain #27 Shigella flexneri): 0.25 µg/mL; MIC [15]: 0.25 µg/mL
C[C@@H](O)C1C(=O)N2C(C(=O)O)=C(CN3CC[C@@H](NC(=N)N)C3)[C@H](C)C12 (some centres unmarked) [Compound 156],0.5,2,4,2,0.5,0.5,2,0.5,1,0.5,0.5,0.5,0.5,1,1,≤ 0.008,4,4,2,0.5,MIC [12]: 2 µg/mL; MIC [13]: 1 µg/mL; MIC (strain #23 Serratia marcescens): 2 µg/mL; MIC (strain #24 Serratia marcescens): 2 µg/mL; MIC [14]: 1 µg/mL; MIC (strain #26 Shigella sonnei): 0.5 µg/mL; MIC (strain #27 Shigella flexneri): 0.5 µg/mL; MIC [15]: 0.5 µg/mL
C[C@@H](O)C1C(=O)N2C(C(=O)O)=C(CN3CC[C@H](NC(=O)CNS(N)(=O)=O)C3)[C@H](C)C12 (some centres unmarked) [Compound 163],2,4,8,16,0.5,1,2,0.5,1,0.5,0.5,0.5,0.5,1,1,≤ 0.008,8,8,4,0.5,MIC [12]: 1 µg/mL; MIC [13]: 0.5 µg/mL; MIC (strain #23 Serratia marcescens): 2 µg/mL; MIC (strain #24 Serratia marcescens): 2 µg/mL; MIC [14]: 1 µg/mL; MIC (strain #26 Shigella sonnei): 0.5 µg/mL; MIC (strain #27 Shigella flexneri): 0.5 µg/mL; MIC [15]: 1 µg/mL
